Test results as given in ChEMBL document CHEMBL1201862, “PubChem BioAssay data set” (2004).
Calls of active or inactive are those of the source.

Assays:
[1] = ADAM10 inhibitors, peptide cleavage, dose response, biochemical, QFRET (AID 743254);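 further: ADAM10 enzyme with the DM2 quenched FRET peptide as substrate; EDANS fluorescence gain as the protease cuts the substrate; inhibitor potency against ADAM10 proteolytic activity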
[2] = target: Disintegrin and metalloproteinase domain-containing protein 17 (Homo sapiens, UniProt P78536); test: ADAM17 protease inhibitors, dose response, counter-screen for ADAM10 exosite inhibitor project, biochemical, quenched FRET substrate (AID 743253)
Disintegrin and metalloproteinase domain-containing protein 17, sequence (P78536 whole entry, the tested form may be a part): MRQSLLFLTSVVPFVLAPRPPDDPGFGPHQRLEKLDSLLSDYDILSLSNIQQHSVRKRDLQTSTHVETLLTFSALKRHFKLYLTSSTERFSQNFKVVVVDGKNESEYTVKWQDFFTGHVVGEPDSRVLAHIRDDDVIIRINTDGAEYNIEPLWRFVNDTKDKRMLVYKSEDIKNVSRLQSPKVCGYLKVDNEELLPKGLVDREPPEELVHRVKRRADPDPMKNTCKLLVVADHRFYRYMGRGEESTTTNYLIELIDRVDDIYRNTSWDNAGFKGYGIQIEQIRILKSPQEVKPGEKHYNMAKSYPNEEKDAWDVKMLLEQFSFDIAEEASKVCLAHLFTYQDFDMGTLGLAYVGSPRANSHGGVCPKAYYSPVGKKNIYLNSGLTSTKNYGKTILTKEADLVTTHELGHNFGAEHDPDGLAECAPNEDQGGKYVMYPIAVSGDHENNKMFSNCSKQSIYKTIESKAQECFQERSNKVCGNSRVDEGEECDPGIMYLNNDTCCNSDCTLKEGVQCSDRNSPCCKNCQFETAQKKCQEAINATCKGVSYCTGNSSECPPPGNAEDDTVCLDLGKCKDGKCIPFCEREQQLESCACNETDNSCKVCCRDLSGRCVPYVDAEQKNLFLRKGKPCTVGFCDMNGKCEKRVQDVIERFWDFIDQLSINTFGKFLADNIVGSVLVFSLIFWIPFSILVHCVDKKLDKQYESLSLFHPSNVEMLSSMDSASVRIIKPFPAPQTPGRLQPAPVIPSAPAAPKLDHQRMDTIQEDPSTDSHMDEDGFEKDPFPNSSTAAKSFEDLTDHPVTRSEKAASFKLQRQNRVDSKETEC

[3] = Luminescence Cell-Based Dose Confirmation to Identify Activators of 5'UTR Stem-Loop Driven Alpha-Synuclein mRNA Translation in H4 Neuroglioblastoma Cells. [Related pubchem assays: 1829 (Project Summary), 1814 (Primary HTS)]; type: functional
[4] = Luminescence Cell-Based Dose Response to Identify Activators of 5'UTR Stem-Loop Driven Prion Protein mRNA Translation in H4-C Neuroglioblastoma Cells. [Related pubchem assays: 1829 (Project Summary), 1814 (Primary HTS)]; type: functional
[5] = test system: HeLa; test: HeLa cell cytotoxicity, dose response, cytotoxicity control for MITF activator project, CellTiter-Glo luminescence, cherry-pick samples (AID 540259); type: functional, cell-based; details: Homo sapiens
[6] = Luminescence Cell-Based Dose Response HTS to Identify Activators of Luciferase Translation or Activity in H4 […] Cells. [Related pubchem assays: 1829 (Project Summary), 1814 (Primary HTS)]; type: functional
[7] = test system: H4; test: Luminescence Cell-Based Dose Response HTS to Identify Activators of 5'UTR Stem-Loop Driven Prion Protein mRNA Translation in H4 Neuroglioblastoma Cells. [Related pubchem assays: 1829 (Project Summary), 1814 (Primary HTS)]; type: functional; details: Homo sapiens
[8] = Luminescence Cell-Based Dose Response to Identify Activators of Luciferase Translation or Activity in H4-C Neuroglioblastoma Cells. [Related pubchem assays: 1829 (Project Summary), 1814 (Primary HTS)]; type: functional
[9] = target: T1, Oxysterols receptor LXR-beta (Homo sapiens, UniProt P55055); test: LXR agonists, Gal4 luciferase reporter, dose response, counter-screen for ssDAF-12 agonist project, cell-based, luminescence, HEK293, S. stercoralis campaign (AID 720737); type: functional; details: read-out: IC50 (the source's name)
T1 sequence (P55055 whole entry): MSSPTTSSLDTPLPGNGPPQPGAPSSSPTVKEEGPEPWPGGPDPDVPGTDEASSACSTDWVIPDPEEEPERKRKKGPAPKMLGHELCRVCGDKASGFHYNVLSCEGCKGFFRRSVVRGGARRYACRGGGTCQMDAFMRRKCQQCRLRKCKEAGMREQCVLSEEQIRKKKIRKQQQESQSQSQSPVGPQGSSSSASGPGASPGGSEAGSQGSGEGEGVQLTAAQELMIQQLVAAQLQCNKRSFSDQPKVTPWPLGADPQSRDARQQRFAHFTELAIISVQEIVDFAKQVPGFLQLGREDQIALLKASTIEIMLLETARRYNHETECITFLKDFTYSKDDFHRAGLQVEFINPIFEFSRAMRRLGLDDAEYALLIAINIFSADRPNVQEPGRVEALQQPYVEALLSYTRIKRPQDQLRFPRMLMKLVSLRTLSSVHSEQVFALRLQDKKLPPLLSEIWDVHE

[10] = Luminescence-based cell-based high throughput dose response assay to identify activators of the DAF-12 from the parasite S. stercoralis (ssDAF-12).; type: functional
[11] = Vero cell cytotoxicity, dose response, cytotoxicity control for Vif-APOBEC3G degradation inhibitor project, Vero cells (AID 1117358); type: functional; details: Human immunodeficiency virus 1, Vero
[12] = inhibitors of intracellular T. cruzi replication, confirmation, NIH3T3 host cells, beta-gal luminescence (AID 2044); type: functional, cell-based;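 further: intracellular parasites grown in NIH/3T3 mouse fibroblasts as host cells; luminescent beta-galactosidase reporter signal from transgenic T. cruzi replicating inside host cells; inhibitors lower the luminescence signal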
[13] = cytotoxicity toward NIH3T3 fibroblasts, dose response, counter-screen, cell-based, ATP luminescence, mouse fibroblasts (AID 2010); type: functional;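 further: cells exposed to compound for about 90 hours before reading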
[14] = inhibitors of clade B AD8 Env fusion, dose response, cell-based, cherry-pick (AID 652062); type: functional;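 further: luciferase signal from cell-cell fusion driven by HIV-1 clade B AD8 Env; potency is for inhibitors of fusion seen as a drop in luminescence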
[15] = inhibitors of HIV Env-driven cell fusion, dose response, cherry-pick (AID 652057); type: functional, cell-based
[16] = MC4R antagonists, dose response, counter-screen for LGR2 antagonist project, cell-based, plate reader, cherry pick (AID 743444); type: functional;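 further: transfected HEK 293 cells stimulated with alpha-MSH peptide; potency of inhibitors of the alpha-MSH evoked signal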
[17] = LGR2 antagonists, dose response, cell-based, HEK293, CRE-luciferase reporter, cherry pick, set 2 (AID 743343); type: functional;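 further: transfected cells were stimulated with diluted bursicon conditioned medium after compound addition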
[18] = off-target signal loss in HeLa-CEM21 co-culture – HeLa F-luc CTL cells, cherry-picked, counter-screen for HIV-1 Env fusion inhibitor project, dose response (AID 652040); type: functional, cell-based;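 further: potency for signal decrease marking cytotoxic or nonspecific inhibition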
[19] = target: T2, Caspase-6 (Homo sapiens, UniProt P55212); test: human caspase-6 inhibitors, dose response, biochemical, VEID-R110 fluorescence, cherry-pick (AID 720632)
T2 sequence (P55212 whole entry): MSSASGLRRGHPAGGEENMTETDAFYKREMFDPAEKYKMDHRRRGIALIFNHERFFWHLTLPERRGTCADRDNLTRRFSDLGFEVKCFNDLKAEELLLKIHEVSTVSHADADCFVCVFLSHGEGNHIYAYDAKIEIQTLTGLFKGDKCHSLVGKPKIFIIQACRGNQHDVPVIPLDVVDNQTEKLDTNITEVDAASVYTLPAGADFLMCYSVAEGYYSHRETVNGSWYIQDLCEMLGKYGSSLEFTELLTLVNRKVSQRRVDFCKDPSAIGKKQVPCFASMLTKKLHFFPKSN

[20] = target: T3, Sentrin-specific protease 8 (Homo sapiens, UniProt Q96LD8); type: functional
T3 sequence (Q96LD8 whole entry): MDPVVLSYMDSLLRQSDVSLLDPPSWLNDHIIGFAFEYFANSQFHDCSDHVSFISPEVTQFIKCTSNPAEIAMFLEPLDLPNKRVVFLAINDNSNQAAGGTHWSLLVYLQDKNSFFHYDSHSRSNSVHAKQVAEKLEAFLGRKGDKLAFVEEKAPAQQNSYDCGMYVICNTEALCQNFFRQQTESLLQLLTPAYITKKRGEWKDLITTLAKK

[21] = target: T3, Sentrin-specific protease 8; type: functional; remark: listed apart in the source
[22] = Luminescence Cell-Based Dose Confirmation HTS to Identify Activators of 5'UTR Stem-Loop Driven Alpha-Synuclein mRNA Translation in H4 Neuroglioblastoma Cells. [Related pubchem assays: 1829 (Project Summary), 1814 (Primary HTS)]; type: functional
[23] = HEK293T cytotoxicity, dose response, cytotoxicity control for miR-122 modulator project, cell-based, inhibitor set, cherry-pick, set 2 (AID 720697); type: functional
[24] = target: Large T antigen (Simian virus 40, UniProt P03070); type: functional, Betapolyomavirus macacae;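 further: Confirmatory-stage PubChem screen for compounds that inhibit SV40 T antigen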
Large T antigen, sequence (P03070 whole entry): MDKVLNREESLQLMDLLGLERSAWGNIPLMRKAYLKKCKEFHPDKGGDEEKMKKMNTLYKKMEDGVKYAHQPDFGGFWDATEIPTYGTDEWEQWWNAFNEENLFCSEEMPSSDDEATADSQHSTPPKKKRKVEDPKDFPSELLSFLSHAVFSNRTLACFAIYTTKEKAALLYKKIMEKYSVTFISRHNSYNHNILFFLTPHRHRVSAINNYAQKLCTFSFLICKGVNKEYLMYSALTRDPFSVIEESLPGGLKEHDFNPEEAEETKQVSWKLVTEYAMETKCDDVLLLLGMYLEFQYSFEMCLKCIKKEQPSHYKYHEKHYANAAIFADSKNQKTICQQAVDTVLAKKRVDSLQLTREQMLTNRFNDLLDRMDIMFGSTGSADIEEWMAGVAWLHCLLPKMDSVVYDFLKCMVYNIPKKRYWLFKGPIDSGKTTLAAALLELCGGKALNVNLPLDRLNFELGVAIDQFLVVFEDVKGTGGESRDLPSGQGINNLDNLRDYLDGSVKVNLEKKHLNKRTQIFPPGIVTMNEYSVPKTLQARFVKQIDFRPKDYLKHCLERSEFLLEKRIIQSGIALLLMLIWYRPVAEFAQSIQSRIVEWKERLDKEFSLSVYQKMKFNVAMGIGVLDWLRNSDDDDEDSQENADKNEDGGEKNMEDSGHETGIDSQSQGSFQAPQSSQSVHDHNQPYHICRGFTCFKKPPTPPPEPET

[25] = target: T4, Histone-lysine N-methyltransferase NSD2 (Homo sapiens, UniProt O96028); type: biochemical
T4 sequence (O96028 whole entry): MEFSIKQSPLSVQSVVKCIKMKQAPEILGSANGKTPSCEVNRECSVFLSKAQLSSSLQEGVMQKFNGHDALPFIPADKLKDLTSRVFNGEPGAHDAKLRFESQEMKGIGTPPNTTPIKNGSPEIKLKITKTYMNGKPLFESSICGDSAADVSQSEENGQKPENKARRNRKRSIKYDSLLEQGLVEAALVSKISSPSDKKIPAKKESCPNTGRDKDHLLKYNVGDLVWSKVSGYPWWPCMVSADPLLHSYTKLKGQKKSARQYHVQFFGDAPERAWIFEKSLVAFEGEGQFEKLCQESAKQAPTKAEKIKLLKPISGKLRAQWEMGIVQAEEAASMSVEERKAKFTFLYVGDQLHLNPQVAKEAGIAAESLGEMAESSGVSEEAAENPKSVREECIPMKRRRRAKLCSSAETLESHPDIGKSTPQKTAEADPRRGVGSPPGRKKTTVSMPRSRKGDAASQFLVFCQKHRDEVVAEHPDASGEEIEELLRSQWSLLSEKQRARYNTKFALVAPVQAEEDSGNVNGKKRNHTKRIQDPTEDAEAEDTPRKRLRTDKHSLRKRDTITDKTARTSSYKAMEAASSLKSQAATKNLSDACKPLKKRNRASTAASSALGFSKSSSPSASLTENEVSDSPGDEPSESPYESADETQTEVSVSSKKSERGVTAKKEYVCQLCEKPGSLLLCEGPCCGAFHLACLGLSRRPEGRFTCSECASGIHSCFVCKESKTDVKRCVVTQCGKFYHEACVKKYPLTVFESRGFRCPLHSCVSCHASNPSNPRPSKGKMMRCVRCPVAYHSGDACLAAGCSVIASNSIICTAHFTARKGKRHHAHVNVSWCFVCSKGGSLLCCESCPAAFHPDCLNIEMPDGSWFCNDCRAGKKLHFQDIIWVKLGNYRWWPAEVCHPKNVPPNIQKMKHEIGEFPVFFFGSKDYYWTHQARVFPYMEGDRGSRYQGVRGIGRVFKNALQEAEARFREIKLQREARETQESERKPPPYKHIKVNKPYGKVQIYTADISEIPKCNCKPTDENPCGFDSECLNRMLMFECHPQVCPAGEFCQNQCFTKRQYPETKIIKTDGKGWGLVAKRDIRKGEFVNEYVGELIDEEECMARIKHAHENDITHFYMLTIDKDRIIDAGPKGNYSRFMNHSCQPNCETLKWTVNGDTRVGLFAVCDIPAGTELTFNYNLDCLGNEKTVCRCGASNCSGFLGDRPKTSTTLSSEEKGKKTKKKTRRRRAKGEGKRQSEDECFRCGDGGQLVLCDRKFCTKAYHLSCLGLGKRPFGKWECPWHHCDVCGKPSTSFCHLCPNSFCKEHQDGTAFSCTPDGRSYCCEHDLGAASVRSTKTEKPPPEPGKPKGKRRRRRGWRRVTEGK

[26] = target: Eukaryotic translation initiation factor 4E (Mus musculus, UniProt P63073); test: eIF4E–eIF4G protein interaction inhibitors, dose response, biochemical, TR-FRET (AID 855); type: functional;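 further: potency for disrupting eIF4E binding to eIF4GI seen as loss of FRET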
Eukaryotic translation initiation factor 4E, sequence (P63073 whole entry): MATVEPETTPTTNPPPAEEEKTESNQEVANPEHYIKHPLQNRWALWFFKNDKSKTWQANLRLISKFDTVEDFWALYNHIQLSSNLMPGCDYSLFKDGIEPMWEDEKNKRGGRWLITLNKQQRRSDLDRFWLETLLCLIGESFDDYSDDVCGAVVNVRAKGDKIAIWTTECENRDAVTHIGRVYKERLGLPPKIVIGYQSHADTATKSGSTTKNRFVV

[27] = target: Nonstructural protein 1 (Influenza A virus, UniProt Q194T2); type: functional, Influenza A virus (A/California/07/2009(H1N1))
Nonstructural protein 1, sequence (Q194T2 whole entry): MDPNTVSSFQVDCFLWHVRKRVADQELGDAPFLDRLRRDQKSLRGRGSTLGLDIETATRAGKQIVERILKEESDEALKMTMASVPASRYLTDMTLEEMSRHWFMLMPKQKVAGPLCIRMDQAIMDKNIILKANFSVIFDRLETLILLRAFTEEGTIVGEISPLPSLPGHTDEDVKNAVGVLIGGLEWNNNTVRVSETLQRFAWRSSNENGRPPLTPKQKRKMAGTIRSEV

[28] = target: T5, Rac GTPase-activating protein 1 (Homo sapiens, UniProt Q9H0H5); test: MgcRacGAP GTPase-activating activity inhibitors, confirmation, biochemical, ADP Hunter fluorescence, primary and confirmatory (AID 624330); type: functional
T5 sequence (Q9H0H5 whole entry): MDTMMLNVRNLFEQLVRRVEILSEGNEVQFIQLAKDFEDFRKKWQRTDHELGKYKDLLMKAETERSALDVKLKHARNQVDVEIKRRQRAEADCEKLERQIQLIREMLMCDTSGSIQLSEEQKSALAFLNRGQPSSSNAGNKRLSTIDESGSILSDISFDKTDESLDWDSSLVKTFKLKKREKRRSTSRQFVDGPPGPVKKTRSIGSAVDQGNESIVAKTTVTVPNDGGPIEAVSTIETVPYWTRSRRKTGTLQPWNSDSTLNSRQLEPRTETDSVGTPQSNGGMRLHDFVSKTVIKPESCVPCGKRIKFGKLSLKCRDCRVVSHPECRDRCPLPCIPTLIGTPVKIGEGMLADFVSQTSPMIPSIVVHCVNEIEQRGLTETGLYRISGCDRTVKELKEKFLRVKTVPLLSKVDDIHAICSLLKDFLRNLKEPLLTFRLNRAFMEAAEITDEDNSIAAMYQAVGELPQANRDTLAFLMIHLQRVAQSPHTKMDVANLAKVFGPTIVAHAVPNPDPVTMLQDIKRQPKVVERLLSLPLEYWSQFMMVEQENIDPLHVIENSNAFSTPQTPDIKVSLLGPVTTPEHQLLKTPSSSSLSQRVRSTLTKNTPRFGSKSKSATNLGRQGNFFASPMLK

[29] = target: Induced myeloid leukemia cell differentiation protein Mcl-1 (Homo sapiens, UniProt Q07820); type: functional
Induced myeloid leukemia cell differentiation protein Mcl-1, sequence (Q07820 whole entry): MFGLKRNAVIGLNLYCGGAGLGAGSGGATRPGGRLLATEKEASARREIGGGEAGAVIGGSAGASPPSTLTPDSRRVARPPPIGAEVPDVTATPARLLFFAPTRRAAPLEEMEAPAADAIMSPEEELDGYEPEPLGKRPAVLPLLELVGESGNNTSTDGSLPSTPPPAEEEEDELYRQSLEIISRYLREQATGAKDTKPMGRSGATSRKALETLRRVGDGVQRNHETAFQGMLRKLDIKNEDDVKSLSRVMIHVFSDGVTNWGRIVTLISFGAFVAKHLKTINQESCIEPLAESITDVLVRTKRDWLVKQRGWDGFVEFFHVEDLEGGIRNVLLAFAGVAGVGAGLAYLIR

Cc1ccc(Nc2nc(N)nc(CSc3nc4ccccc4s3)n2)cc1
IC50 [1]: > 7.72 µM (active) | IC50 [2]: > 69.5 µM (inactive)

Clc1ccc(-c2cn3c(n2)CCC3)cc1
EC50 [3]: 0.319 µM (active) | EC50 [4]: 0.397 µM (active) | AC50 [5]: 173 µM (active) | EC50 [6]: < 0.1 µM (active) | EC50 [7]: > 120 µM (not active) | EC50 [8]: 0.299 µM (active)

CC1CCC(NC(=O)c2ccc(S(C)(=O)=O)cc2)CC1 (stereo not given)
EC50 [9]: > 67.5 µM (inactive) | IC50 [10]: > 67.5 µM (inactive)

COc1ccc(CCNC(=O)CSc2nc(-c3ccco3)cc(C(F)(F)F)n2)cc1
CC50 [11]: > 40 µM (active)

Cc1ccc(C(=O)Nc2ccccc2-c2ccccc2)cc1S(=O)(=O)Nc1cccc(C)c1C
EC50 [12]: 1.57 µM (active) | IC50 [1]: > 69.5 µM (inactive) | EC50 [13]: > 60 µM (not active) | IC50 [2]: > 69.5 µM (inactive)

Cc1cc(C(=O)CN2C(=O)c3ccccc3S2(=O)=O)c(C)n1C(C)C
AC50 [14]: 7.58 µM (active) | AC50 [15]: 3.93 µM (active) | AC50 [16]: 2.08 µM (active) | AC50 [17]: 2.48 µM (active) | AC50 [18]: 3.75 µM (active)

CC1Cc2ccccc2N1C(=O)COC(=O)c1ccc([N+](=O)[O-])o1 (stereo not given)
AC50 [19]: 13 µM (active) | IC50 [20]: 8.67 µM (active) | IC50 [21]: 3.78 µM (active)

Cc1ccc(NC(=O)C2CC(=O)Nc3nncn32)cc1 (stereo not given)
EC50 [9]: > 67.6 µM (inactive) | IC50 [10]: > 67.6 µM (inactive)

Fc1cccc(Cl)c1Cc1noc(/C=C/c2ccccc2)n1
EC50 [22]: < 0.1 µM (active) | EC50 [3]: > 12 µM (not active) | EC50 [4]: > 12 µM (not active) | EC50 [6]: 70.3 µM (active) | EC50 [7]: 4.36 µM (active) | EC50 [8]: > 12 µM (not active)

O=C1Cc2ccccc2C(=O)N1c1ccc(F)cc1Cl
AC50 [19]: 20.4 µM (active) | IC50 [20]: 4.41 µM (active) | IC50 [21]: > 100 µM (inactive)

Nc1nonc1OCCCCOc1nonc1N
EC50 [9]: > 67.6 µM (inactive) | IC50 [10]: > 67.6 µM (inactive)

COc1ccc(S(=O)(=O)N(C)C[C@@H]2OCCCC[C@H](C)Oc3ccc(NC(=O)Nc4ccc(C(F)(F)F)cc4)cc3C(=O)N([C@H](C)CO)C[C@H]2C)cc1
IC50 [1]: > 69.5 µM (inactive) | IC50 [2]: > 69.5 µM (inactive)

CCCNC(=O)Nc1ccc2c(c1)C(=O)N(C)[C@@H]1CC[C@H](CC(=O)O)O[C@H]1CO2
AC50 [23]: 1.82 µM (active)

CN(C)c1ccc(/N=c2/sc3ccccc3n2C)cc1
IC50 [24]: 11.4 µM (active) | AC50 [25]: 10.4 µM (active) | IC50 [26]: > 64 µM (inactive) | IC50 [27]: 23.9 µM (active) | IC50 [28]: 18.9 µM (active) | IC50 [29]: 40.2 µM (active)
